Tests used:
heparanase = experiment: Inhibition of T lymphocyte heparanase activity (degradation of 35S-labeled heparan sulfate of extracellular matrix); type: biochemical; settings: medium of activated T lymphocytes, 35S-labeled extracellular matrix, various concentrations
Procedure: Heparanase activity was induced into the extracellular medium bathing activated T lymphocytes and tested by incubating the medium with extracellular matrix whose heparan sulfate was labeled with ^35 S as described (Naparstek, Y., Cohen, I. R., Fuks, Z. and I. Vlodavsky. Activated T lymphocytes produce a matrix-degrading heparan sulphate endoglycosidase. Nature 310:241 (1984)). Inhibition of heparanase activity was tested by adding various concentrations of heparin or modified heparins to the reaction mixture and measuring the effect on degradation of the labeled heparin-sulfate as described (Naparstek, Y., Cohen, I. R., Fuks, Z. and I. Vlodavsky.
Activated T lymphocytes produce a matrix-degrading heparan sulphate endoglycosidase, Nature 310:241 (1984)). Totally desulfated heparin and N-desulfated, N-acetylated heparin was prepared as described. (Ayotte, L., A. S. Perlin. NMR spectroscopic observations related to the function of sulfate groups in heparin. Calcium binding vs. biological activity. Carbohydrate Res. 145:267 (1986)).

[1] = tested on: experimental autoimmune encephalomyelitis (EAE); experiment: Experimental autoimmune encephalomyelitis (EAE) produced by anti-BP T lymphocytes; type: in vivo, Lewis rats; settings: for Day of onset of EAE / Duration of EAE / % incidence of EAE / Clinical score of EAE: 0.1 mg/kg daily; for % incidence of EAE: None 100; for Clinical score of EAE: scale 1-4, None 3.0
Text: EAE is an experimental autoimmune disease with some features reminiscent of multiple sclerosis in humans. The disease is caused by T lymphocytes immunized to the basic protein (BP) of the central nervous system myelin. To test the effect of heparins on the ability of T lymphocytes to cause autoimmune disease, we used T lymphocytes sensitized against BP, either as T cell lines (Cohen, I. R. Experimental autoimmune encephalomyelitis: Pathogenesis and prevention. In: Immunoregulatory Processes in Multiple Sclerosis and Experimental Allergic Encephalomyelitis. A. A. Vandenbark and J. C. M. Raus, eds. Elsevier Biomedical Res. Amsterdam. 7:91-125 (1985)) or as populations of lymph node cells from BP immunized rats.
EAE was produced by inoculating Lewis rats with a T cell line of anti-BP T lymphocytes (10^6 cells) with anti-BP primed lymph node cells (10^7 cells) intravenously (Cohen, I. R. Experimental autoimmune encephalomyelitis: Pathogenesis and prevention. In: Immunoregulatory Processes in Multiple Sclerosis and Experimental Allergic Encephalomyelitis. A. A. Vandenbark and J. C. M. Raus, eds. Elsevier Biomedical Res. Amsterdam. 7:91-125 (1985)) One day before inoculation and daily for 10 days, the rats received either saline or the heparins.

DTH skin response = settings: human, in vivo

How did the “Inhibition of degradation of heparan sulfate by heparanase” value (heparanase) turn out when heparin was run?
Its value is “yes”.

What about the “EAE clinical score (FIG. 3)” value ([1]; 0.02 mg daily s.c. (0.1 mg/kg), from 1 day before T lymphocyte inoculation) of the same substance?
Its value is “inhibits EAE”.

What about the “Day of onset of EAE” value ([1]; B: T cell line, None 5.0) of the same substance?
The value was 6.5.

What about the “Duration of EAE” value ([1]; B: T cell line, None 5.5) of the same substance?
Its value is 3.6 days.

What about the “% incidence of EAE” value ([1]; B: T cell line) of the same substance?
The value was 20%.

And the “Clinical score of EAE” value ([1]; B: T cell line)?
Its value is 1.0.

And the “Day of onset of EAE” value ([1]; D: primed lymph node cells, None 4.0)?
Its value is 6.3.

What about the “Duration of EAE” value ([1]; D: primed lymph node cells, None 5.3) of the same substance?
The value was 4.0 days.

What about the “% incidence of EAE” value ([1]; D: primed lymph node cells) of the same substance?
Its value is 75%.

What about the “Clinical score of EAE” value ([1]; D: primed lymph node cells) of the same substance?
Its value is 1.5.

And the “Effect on the DTH response (FIG. 9)” value (DTH skin response)?
The value was “did not have a significant inhibitory effect”.

And the Extent of induration (DTH skin response)?
Its Extent of induration is “decreased similarly”.

And the “Mean diameter of erythema to mumps during treatment” value (DTH skin response)?
Its value is 13.6 mm.

And the “Mean diameter of erythema to tetanus toxoid during treatment” value (DTH skin response)?
The value was 16.8 mm.

And the “Reversibility of the effect on the DTH response (FIG. 9)” value (DTH skin response)?
Its value is “transient”.

What about the “Volunteers with significantly decreased DTH response to mumps” value (DTH skin response; sc) of the same substance?
Its value is 11/12.

And the “Volunteers with significantly decreased DTH response to tetanus” value (DTH skin response; sc)?
Its value is 10/12.
